Data: BindingDB's records for doi:10.7270/Q29G5K5D (Cc_Pmlsc, 2007)

Target: T1, Dual specificity protein phosphatase 1 (Homo sapiens, UniProt P28562)
T1 sequence (P28562 whole entry): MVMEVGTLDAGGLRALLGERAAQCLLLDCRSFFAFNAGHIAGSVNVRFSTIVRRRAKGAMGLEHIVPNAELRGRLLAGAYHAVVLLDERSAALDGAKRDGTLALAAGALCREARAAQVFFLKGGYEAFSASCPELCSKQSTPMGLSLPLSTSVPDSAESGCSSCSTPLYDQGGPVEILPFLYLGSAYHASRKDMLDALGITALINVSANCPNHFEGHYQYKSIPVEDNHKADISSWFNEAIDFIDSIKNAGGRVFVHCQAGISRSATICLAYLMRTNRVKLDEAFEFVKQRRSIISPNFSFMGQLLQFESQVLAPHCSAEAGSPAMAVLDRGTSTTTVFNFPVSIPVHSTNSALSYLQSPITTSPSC
Assay: MKP-1 phosphatase inhibitors, SAR follow-up, biochemical, in vitro (AID 579)
Conditions: pH 7; 23 °C

| IC50 [µM] | SMILES |
| --- | --- |
| > 50 | CN(C)/C=N/c1cc(=O)n(C)c(=O)n1CC1CC1 [CC-PMLSC-DMA-P142] |
| > 50 | CN(C)C=Nc1cc(=O)[nH]c(=O)n1Cc1ccccc1 [N'-[2,6-dioxo-3-(phenylmethyl)-4-pyrimidinyl]-N,N-dimethylmethanimidamide] |
| > 50 | CN(C)C=Nc1cc(=O)[nH]c(=O)n1C [N,N-dimethyl-N'-(3-methyl-2,6-dioxo-4-pyrimidinyl)methanimidamide] |
| 13.4 | Cn1c(=O)c(C(=O)COC(=O)c2cc(-c3ccco3)nc3ccccc23)c(N)n(Cc2ccccc2)c1=O [[2-(6-amino-1-benzyl-3-methyl-2,4-dioxopyrimidin-5-yl)-2-oxoethyl] 2-(furan-2-yl)quinoline-4-carboxylate] |
